Measured values reported in publication PMC12154426, “TPP-Based Nanovesicles Kill MDR Neuroblastoma Cells and Induce Moderate ROS Increase, While Exerting Low Toxicity Towards Primary Cell Cultures: An In Vitro Study” (International Journal of Molecular Sciences, 2025).
Read-outs that look alike come from different tables or passages of the source.

Tests used:
Format in all cases: cell-based, human
HTLA ER [1] = assay: DCFH assay of ROS (H2O2) production, HTLA ER
Excerpt: (§1) It has been reported that the administration of TPP-based compounds, including TPP-based bola amphiphilic nanovesicles such as BPPB, induce ROS overproduction, thus causing oxidative stress (OS), which has been widely reported to be involved in the anticancer effect of several chemotherapeutic drugs, including etoposide, doxorubicin [38], and cisplatin [39]. […] On the contrary, the role of ROS was scarcely present in PLX-resistant CMM cells exposed to the same concentrations of BPPB [13]. With these considerations, we evaluated ROS levels also in NB cells treated with BPPB, since this experiment would have been particularly helpful to understand whether (i) these nanovesicles’ preparation exerts its cytotoxic action on HTLA 230 and ER cells through ROS production, as in PLX-sensitive CMM cells; or (ii) the resistance acquired by HTLA ER based on high levels of antioxidants, following chronic treatment with etoposide, conferred resistance also to a preparation based on the use of nanovesicles (BPPBs). Moreover, the evaluation of ROS levels can be an indirect method to ascertain and confirm the presence of apoptosis, since as reported, low levels of ROS induce apoptosis and high levels induce necrosis.Therefore, to investigate the pro-oxidant action of BPPB also in HTLA 230 and HTLA ER NB cells, ROS levels were evaluated in both NB cell populations exposed for 24–72 h to increasing concentrations (0.1–2 µM) of BPPB using the DCFH essay (Figure 4). The results were reported as a percentage of cells positive to DCFH normalized for protein content. Raw fluorescence data are, in fact, not applicable since an increase in fluorescence could be due to a high number of cells but also to an increased production of H2O2 induced by the treatments. This is the reason why it is necessary to normalize the fluorescence data to the protein content. Other cellular assays measuring oxidative damage, including lipid peroxidation or protein carbonylation, are likely too complex for low-tier early hazard assessment or hazard screening. Conversely, the cellular DCFH assay is a simpler and widely used alternative, which measures intracellular ROS production by forming a fluorescent product (DCF) upon oxidation by free radicals produced by cells.
(§2) The production of H2O2 was evaluated using 2′-7′-dichlorofluorescein-diacetate (DCFH-DA; Merk Life Science S.r.l. Milan, Italy), as previously reported. Briefly, NB cells (10^4 cells/well) were seeded in 96-well plates (Corning) and treated. Then, cells were stained with 2′-7′ di-chloro-fluorescein-diacetate (DCFH-DA; Sigma-Aldrich) and incubated with 90% DMSO for an additional 10 min in the dark. The generated fluorescence intensity was monitored with a Perkin Elmer fluorometer (Perkin Elmer Life and Analytical Sciences, Shelton, WA, USA) at 485/530 nm excitation/emission. Values were normalized to the protein content.

HTLA ER [2] = assay: MTS cell viability assay on HTLA ER NB cells; conditions: for HTLA ER more tolerant to BPPB than HTLA 230: from IC50
Protocol: In this section, the strong anticancer effect of BPPB against ETO-sensitive HTLA 230 and multidrug-resistant (MDR) HTLA ER neuroblastoma (NB) cells previously reported was confirmed. Cell viability in HTLA 230 and HTLA ER cells exposed to increasing concentrations of BPPB for 24, 48, and 72 h was assessed by using the MTS essay, which is an efficient, eco- and user-friendly tool, commonly used to investigate the behaviour of cancer cells when exposed to specific treatments and how these treatments influence their growth and viability.
Following this, µM concentrations (x) were transformed in Log10 (x) (Figure 1e (HTLA 230) and Figure 1f (HTLA ER), traces with indicators and error bar). The nonlinear regression models of the Log10 (BPPB concentrations) vs. the normalized response (Hill Slope) shown in Figure 1e (HTLA 230) and Figure 1f (HTLA ER), traces without indicators, elaborated by GraphPad Prism software version 8.0.1 (GraphPad Software, Boston, MA, USA), gave us the IC50 values of BPPB for both cell populations at 24, 48, and 72 h of treatment.
HTLA 230 is a MYCN-amplified human stage-IV NB cell line, obtained from the G. Gaslini Institute, Genoa, Italy. The cytogenetic features of the HTLA 230 cell line include […] MYCN amplification, del(11)t(11;Y), balanced translocation t(1;17)(p36;q21), and dup(11p), which were previously described by Pezzolo et al.. Cells were periodically tested for mycoplasma contamination (Mycoplasma Reagent Set, Aurogene s.p.a, Pavia, Italy). After thawing and eight passages in the culture, cell morphology and proliferation were analyzed. […] Both cell populations were cultured in RPMI 1640 (Euroclone SpA, Pavia, Italy) supplemented with 10% fetal bovine serum (FBS; Euroclone, Pavia, Italy), 2 mM glutamine (Euroclone, Pavia, Italy), 1% penicillin/streptomycin (Euroclone, Pavia, Italy), 1% sodium pyruvate (Sigma-Aldrich, Sant Louis, MO, USA), and 1% amino acid solution (Sigma).
To determine the cytotoxic effects of BPPB, in vitro time- and dose-dependent experiments were carried out, as recently described. Briefly, cells were treated for 24, 48, and 72 h, with increasing concentrations (0.1–2.0 µM) of the compound. […] Cell cultures were carefully monitored before and during the experiments to ensure optimal cell density.
Cell viability was determined by using the CellTiter 96® AQueous One Solution Cell Proliferation MTS Assay (Promega, Madison, WI, USA), as previously described. MTS is a colorimetric method commonly used for determining cell viability. The cell survival rate, expressed as the cell viability percentage (%), was evaluated based on the experimental outputs of treated cells vs. the untreated ones (CTRs), and was calculated as follows: cell viability (%) = (OD treated cells − OD blank)/(OD untreated cells − OD blank) × 100%. IC50 values were calculated by GraphPad Prism 8.0.1 Software (GraphPad Software v8.0, San Diego, CA, USA), as detailed in the Results and Discussion in Section 2.

HTLA 230 = assay: DCFH assay of ROS (H2O2) production, HTLA 230; conditions: for highest value of DCFH-positive cells: normalized for protein content, control = 1
Excerpt: as §1, §2

## c1ccc([P+](CCCCCCCCCCCC[P+](c2ccccc2)(c2ccccc2)c2ccccc2)(c2ccccc2)c2ccccc2)cc1 [BPPB, 1,1-(1,12-dodecanediyl)-bis-[1,1,1]-triphenyl phosphonium di-bromide]
HTLA ER [1]; 24 h
  concentration significantly inducing ROS overproduction: 1.25 µM
  concentrations that did not induce significant changes in ROS levels: ≤ 1 µM
HTLA ER [1]; 24 h, normalized for protein content, control = 1
  highest value of DCFH-positive cells: 4.92
HTLA ER [1]; 24 h exposure
  increase in ROS with respect to the control: > 4 times
HTLA ER [1]; 48 h
  concentrations that did not induce significant changes in ROS levels: ≤ 1.25 µM
HTLA ER [1]; 48 h, normalized for protein content, control = 1
  highest value of DCFH-positive cells: 3.67
HTLA ER [1]; 72 h
  concentrations that did not induce significant changes in ROS levels: ≤ 0.75 µM
  maximal DCFH value in HTLA ER lower than in HTLA 230: 1.16 times
HTLA ER [1]; 72 h, normalized for protein content, control = 1
  maximal value of DCFH-positive cells: 4.99
HTLA ER [2]; 1.25 µM, 24 h
  cell viability: 42.5%
HTLA ER [2]; 1.25 µM, 72 h
  cell viability: 39.8%
HTLA ER [2]; 1.5 µM, 48 h
  cell viability: 39.4%
HTLA ER [2]; 2 µM, 24 h
  cell viability: 26.5%
HTLA ER [2]; 2 µM, 48 h
  cell viability: 33.1%
HTLA ER [2]; 2 µM, 72 h
  cell viability: 25.8%
HTLA ER [2]; 24 h
  concentration causing significant reduction in viability of cells: ≥ 0.75 µM
  HTLA ER more tolerant to BPPB than HTLA 230: 1.3 times
HTLA ER [2]; 24 h exposure, 0.1–2 µM, read-out: IC50 HTLA ER
  IC50: 1240 ± 61 nM
HTLA ER [2]; 48 h
  concentration causing significant reduction in viability of cells: ≥ 0.75 µM
  HTLA ER more tolerant to BPPB than HTLA 230: 2.9 times
HTLA ER [2]; 48 h exposure, 0.1–2 µM, read-out: IC50 HTLA ER
  IC50: 1350 ± 52 nM
HTLA ER [2]; 72 h
  concentration causing significant reduction in viability of cells: ≥ 1.00 µM
  HTLA ER more tolerant to BPPB than HTLA 230: 3.1 times
HTLA ER [2]; 72 h exposure, 0.1–2 µM, read-out: IC50 HTLA ER
  IC50: 1200 ± 69.5 nM
HTLA ER [2]; HTLA ER, 24 h, ETO value ref 16
  IC50 lower than that determined with ETO: 478 fold
HTLA ER [2]; over 24, 48, 72 h exposure, read-out: IC50 on MDR HTLA ER
  IC50: 1200 to 1350 nM
HTLA 230; 24 h
  concentration giving significant increase in ROS levels: ≥ 0.5 µM
  highest value of DCFH-positive cells: 2.96
HTLA 230; 24 h exposure
  increase in ROS with respect to the control: > 3 times
HTLA 230; 48 h
  average ROS production in HTLA 230 higher than in HTLA ER: 1.3 times
  concentration giving significant increase in ROS levels: ≥ 0.5 µM
  highest value of DCFH-positive cells: 3.05
HTLA 230; 72 h
  average ROS production in HTLA 230 higher than in HTLA ER: 1.4 times
  concentration giving significant increase in ROS levels: ≥ 0.25 µM
HTLA 230; 72 h, highest doses
  highest value of DCFH-positive cells: 5.8
HTLA 230; HTLA 230 and HTLA ER, 24 h
  more efficient in inducing ROS overproduction than TiO2-Ta nanoparticles: 9.4–23.4 fold
